Assay results from BindingDB's records for patent US20250346597 (Beone Medicines I, 2025).

Tests used:
[1] = target: Diacylglycerol kinase alpha (Homo sapiens, UniProt P23743); assay: Biochemical DGK IC50 Assays
Procedure: (§1) Enzymatic reactions of DGKζ, DGKα and DGKδ were performed using ADP-Glo assay with lipid micelle substrate. […] Full length DGKα (D21-10BG, SignalChem) and full length DGKδ (D23-10G, SignalChem) were purchased. […] The resulted product was resuspended in buffer containing 25 mM HEPES pH 7.0, 0.5 mM EDTA and 160 mM Octyl P-D glucopyranoside by vigorous mixing and ultrasonic (IID, Scientz). Final concentration in reaction. […] The inhibition activities testing for the compound disclosed herein were carried out at room temperature in assay buffer containing 50 mM HEPES, 10 mM MgCl2, 0.01% BSA, 0.1 mM Na3VO4, 0.005% Tween-20 and 0.01 mM CaCl2. […] 3 μL 2× enzyme solution was added to wells. […] After 1 hour reaction, 5 μL ADP-Glo reagent (Promga V9101) was added and incubated for 40 minutes. 10 μL Kinase Detection reagent was added and incubated for 30 minutes. Luminescence was measured on a microplate reader (PHERAstar FSX, BMG labtech). The IC50s are calculated based on inhibition of enzyme activity in the presence of increasing concentrations of compounds.

[2] = target: Diacylglycerol kinase zeta (Homo sapiens, UniProt Q13574); assay: Biochemical DGK IC50 Assays
Sequence of Diacylglycerol kinase zeta (Q13574 as listed by the source): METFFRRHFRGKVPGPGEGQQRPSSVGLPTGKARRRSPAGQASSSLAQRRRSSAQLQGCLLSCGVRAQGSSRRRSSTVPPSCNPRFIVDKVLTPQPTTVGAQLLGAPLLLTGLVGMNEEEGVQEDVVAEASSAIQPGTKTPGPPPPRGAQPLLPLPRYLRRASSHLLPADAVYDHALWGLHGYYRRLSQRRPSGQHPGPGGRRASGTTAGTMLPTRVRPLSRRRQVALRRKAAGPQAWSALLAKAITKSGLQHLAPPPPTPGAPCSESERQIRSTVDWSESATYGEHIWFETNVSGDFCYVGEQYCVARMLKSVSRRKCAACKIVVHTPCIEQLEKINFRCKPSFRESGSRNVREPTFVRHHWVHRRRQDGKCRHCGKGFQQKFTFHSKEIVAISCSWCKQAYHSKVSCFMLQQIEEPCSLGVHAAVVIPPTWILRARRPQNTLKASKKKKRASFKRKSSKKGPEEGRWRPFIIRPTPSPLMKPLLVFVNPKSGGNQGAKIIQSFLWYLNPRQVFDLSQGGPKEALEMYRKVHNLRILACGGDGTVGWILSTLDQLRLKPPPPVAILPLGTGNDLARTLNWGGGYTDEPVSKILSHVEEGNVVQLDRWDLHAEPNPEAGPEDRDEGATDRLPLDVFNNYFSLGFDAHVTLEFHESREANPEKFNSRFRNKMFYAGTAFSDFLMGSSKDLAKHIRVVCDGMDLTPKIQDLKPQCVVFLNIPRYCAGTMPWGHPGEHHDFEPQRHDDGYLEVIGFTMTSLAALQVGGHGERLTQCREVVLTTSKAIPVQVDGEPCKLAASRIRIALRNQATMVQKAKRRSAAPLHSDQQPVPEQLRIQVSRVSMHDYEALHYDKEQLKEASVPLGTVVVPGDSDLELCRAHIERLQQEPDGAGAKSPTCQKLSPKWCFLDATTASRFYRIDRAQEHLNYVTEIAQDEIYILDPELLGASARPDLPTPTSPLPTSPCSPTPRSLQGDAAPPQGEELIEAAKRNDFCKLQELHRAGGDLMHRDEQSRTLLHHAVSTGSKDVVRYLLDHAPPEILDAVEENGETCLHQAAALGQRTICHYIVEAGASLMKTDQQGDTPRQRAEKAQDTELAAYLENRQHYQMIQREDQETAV
Procedure: as §1

Sequence of Diacylglycerol kinase alpha (P23743 whole entry): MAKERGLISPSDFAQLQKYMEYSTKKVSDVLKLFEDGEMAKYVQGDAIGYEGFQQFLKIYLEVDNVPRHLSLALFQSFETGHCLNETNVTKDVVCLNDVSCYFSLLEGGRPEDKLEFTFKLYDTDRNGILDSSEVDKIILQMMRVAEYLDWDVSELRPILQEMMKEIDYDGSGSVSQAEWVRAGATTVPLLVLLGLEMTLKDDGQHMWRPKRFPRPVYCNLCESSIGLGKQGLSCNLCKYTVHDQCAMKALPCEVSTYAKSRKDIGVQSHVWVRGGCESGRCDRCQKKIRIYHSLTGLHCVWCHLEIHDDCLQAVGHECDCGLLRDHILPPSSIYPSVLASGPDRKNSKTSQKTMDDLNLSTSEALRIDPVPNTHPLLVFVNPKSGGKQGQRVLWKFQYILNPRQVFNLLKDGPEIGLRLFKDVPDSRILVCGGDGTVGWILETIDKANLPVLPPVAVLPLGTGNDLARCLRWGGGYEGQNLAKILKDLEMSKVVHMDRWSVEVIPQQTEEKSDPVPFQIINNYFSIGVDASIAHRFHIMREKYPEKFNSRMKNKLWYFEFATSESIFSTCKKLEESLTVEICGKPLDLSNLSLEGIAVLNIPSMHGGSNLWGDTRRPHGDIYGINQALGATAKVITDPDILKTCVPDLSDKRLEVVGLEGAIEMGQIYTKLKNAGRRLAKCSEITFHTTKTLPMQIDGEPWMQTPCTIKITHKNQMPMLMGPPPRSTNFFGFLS

Compound | IC50 [1] [nM] | IC50 [2] [nM]
CC[C@@H]1CN(C2CC(=O)N(C)C3=CN(CC#N)NC32)[C@@H](CC)CN1C(C)c1ccc(OCCOC)cc1 (stereo partly drawn) [US20250346597, Compound A11] | 79 | 500
CC[C@H]1CN(C(C)c2ccc(N)nc2)[C@H](CC)CN1c1cc(=O)n(C)c2cn(CC#N)nc12 (single isomer, unassigned) [US20250346597, Compound A187b] |  | > 10000
